Patent US20250026724A1, “(1,4,5-TRISUBSTITUTED 1H-PYRAZOL-3-YL)OXY-2-ALKYLTHIOALKYL ACIDS AND -ALKYL ACID DERIVATIVES, SALTS THEREOF AND USE THEREOF AS ACTIVE HERBICIDAL INGREDIENTS” (BAYER AKTIENGESELLSCHAFT, priority 2021, published 2025)

Assays:
Assay type in all cases: in vivo
[1] = test system: Amaranthus retroflexus (AMARE); assay: Pre-emergence herbicidal effect, greenhouse pot trial; settings: visual rating after about 3 weeks vs untreated controls
Source text: (§1) Seeds of monocotyledonous and dicotyledonous weed plants and crop plants are placed in plastic or organic planting pots and covered with soil. The compounds of the invention, formulated in the form of wettable powders (WP) or as emulsion concentrates (EC), are then applied to the surface of the covering soil as aqueous suspension or emulsion with addition of 0.5% additive at a water application rate equivalent to 600 1/ha. After the treatment, the pots are placed in a greenhouse and kept under good growth conditions for the trial plants. After about 3 weeks, the effect of the preparations is rated visually in comparison with untreated controls as percentages. For example, 100% activity=the plants have died, 0% activity=like control plants.
(§2) Tables A1 and A2 below show the effects of selected compounds of the general formula (I) according to Table 1 on various harmful plants and at an application rate corresponding to 320 g/ha or lower, which were obtained by the trial procedure specified above. The appendices “a” and “b” give differentiation by dosage used with otherwise the same harmful plants tested.
(§3) As shown by the results from Tables A1 and A2, compounds of the invention have good pre-emergence herbicidal efficacy against harmful plants, for example against harmful plants such as Amaranthus retroflexus (AMARE) and Polygonum convolvulus (POLCO).

[2] = test system: Polygonum convolvulus (POLCO); assay: as above; settings: visual rating after about 3 weeks vs untreated controls
Source text: as §1, §2, §3

[3] = test system: Abutilon theophrasti (ABUTH); assay: Post-emergence herbicidal action, greenhouse pot trial; settings: Abutilon theophrasti, 504 h, 320 g/ha, visual rating after about 3 weeks, read-out: Post-emergence effect at 320 g/ha against ABUTH in %
Method in brief: (§4)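 Using WP or EC formulations applied at the one-leaf stage, compounds were sprayed onto weeds at 320 g/ha or lower. Percent activity was estimated visually about three weeks later, with dead plants scored 100% and control-like plants 0%.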

[4] = test system: Alopecurus myosuroides (ALOMY); assay: as above; settings: Alopecurus myosuroides, 504 h, 320 g/ha, visual rating after about 3 weeks, read-out: Post-emergence effect at 320 g/ha against ALOMY in %
Method in brief: as §4

[5] = test system: Echinochloa crus-galli (ECHCG); assay: as above; settings: Echinochloa crus-galli, 504 h, visual rating after about 3 weeks
Method in brief: as §4

Lolium rigidum (LOLRI) = assay: as above; settings: Lolium rigidum, 504 h, 320 g/ha, visual rating after about 3 weeks, read-out: Post-emergence effect at 320 g/ha against LOLRI in %
Method in brief: as §4

[6] = test system: Matricaria inodora (MATIN); assay: as above; settings: Tripleurospermum inodorum, 504 h, visual rating after about 3 weeks
Method in brief: as §4

[7] = test system: Pharbitis purpurea (PHBPU); assay: as above; settings: Ipomoea purpurea, 504 h, 320 g/ha, visual rating after about 3 weeks, read-out: Post-emergence effect at 320 g/ha against PHBPU in %
Method in brief: as §4

[8] = test system: Polygonum convolvulus (POLCO); assay: as above; settings: Fallopia convolvulus, 504 h, visual rating after about 3 weeks
Method in brief: as §4

Setaria viridis (SETVI) = assay: as above; settings: Setaria viridis, 504 h, 320 g/ha, visual rating after about 3 weeks, read-out: Post-emergence effect at 320 g/ha against SETVI in %
Method in brief: as §4

Viola tricolor (VIOTR) = assay: as above; settings: Viola tricolor, 504 h, 320 g/ha, read-out: Post-emergence effect against VIOTR
Method in brief: as §4

Brassica napus (BRSNW) = assay: Post-emergence crop plant compatibility, greenhouse pot trial; settings: 20 g/ha, in comparison to untreated controls
Method in brief: (§5)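 Sandy loam pots, greenhouse; one-leaf stage (2–3 wk post-sowing) sprayed with aqueous WP/EC, 0.5% additive, 600 l/ha water rate. Visual % rating ~3 wk after treatment vs untreated; 0% = like control, 100% = plants died. Suffixes a/b/c mark different dosages.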

Glycine max (GLXMA) = assay: as above; settings: in comparison to untreated controls
Method in brief: as §5

Oryza sativa (ORYSA) = assay: as above; settings: in comparison to untreated controls
Method in brief: as §5

[9] = test system: Triticum aestivum (TRZAS); assay: as above; settings: post-emergence; for Post-emergence effect against TRZAS (crop plant compatibility): in comparison to untreated controls; for Post-emergence effect at 320 g/ha against TRZAS in %: crop plant compatibility (effect on crop vs untreated controls)
Method in brief: as §5

Zea mays (ZEAMX) = assay: as above; settings: in comparison to untreated controls
Method in brief: as §5

| SMILES | Post-emergence effect against BRSNW (crop plant compatibility) (Brassica napus (BRSNW)) [%] | Post-emergence effect against GLXMA (crop plant compatibility) (Glycine max (GLXMA); 20 g/ha) [%] | Post-emergence effect against GLXMA (crop plant compatibility) (Glycine max (GLXMA); 80 g/ha) [%] | Post-emergence effect against ORYSA (crop plant compatibility) (Oryza sativa (ORYSA); 20 g/ha) [%] | Post-emergence effect against ORYSA (crop plant compatibility) (Oryza sativa (ORYSA); 80 g/ha) [%] | Post-emergence effect against ORYSA (crop plant compatibility) (Oryza sativa (ORYSA); 320 g/ha) [%] | Post-emergence effect against TRZAS (crop plant compatibility) ([9]; 20 g/ha) [%] | Post-emergence effect against TRZAS (crop plant compatibility) ([9]; 80 g/ha) [%] | Post-emergence effect at 320 g/ha against TRZAS in % [9] [%] | Post-emergence effect against ZEAMX (crop plant compatibility) (Zea mays (ZEAMX); 20 g/ha) [%] | Post-emergence effect against ZEAMX (crop plant compatibility) (Zea mays (ZEAMX); 80 g/ha) [%] | Post-emergence effect against ZEAMX (crop plant compatibility) (Zea mays (ZEAMX); 320 g/ha) [%] | further results |
| --- | --- | --- | --- | --- | --- | --- | --- | --- | --- | --- | --- | --- | --- |
| CCOC(=O)C(Oc1nn(-c2ccccc2F)c(-c2ccc(F)nc2)c1Br)SC (centres unmarked) [Example I-01] | – | – | – | – | – | – | – | – | – | – | – | – | Pre-emergence effect at 80 g/ha against AMARE in % ([1]; 80 g/ha): 90%; Pre-emergence effect at 320 g/ha against AMARE in % ([1]; 320 g/ha): 100%; Pre-emergence effect at 80 g/ha against POLCO in % ([2]; 80 g/ha): 80%; Pre-emergence effect at 320 g/ha against POLCO in % ([2]; 320 g/ha): 80%; pest or weed control at 320 g/ha [3]: 80%; pest or weed control at 320 g/ha [4]: 80%; pest or weed control at 80 g/ha ([5]; 80 g/ha, read-out: Post-emergence effect at 80 g/ha against ECHCG in %): 80%; pest or weed control at 320 g/ha ([5]; 320 g/ha, read-out: Post-emergence effect at 320 g/ha against ECHCG in %): 80%; pest or weed control at 320 g/ha (Lolium rigidum (LOLRI)): 80%; pest or weed control at 80 g/ha ([6]; 80 g/ha, read-out: Post-emergence effect at 80 g/ha against MATIN in %): 80%; pest or weed control at 320 g/ha ([6]; 320 g/ha, read-out: Post-emergence effect at 320 g/ha against MATIN in %): 80%; pest or weed control at 320 g/ha [7]: 90%; pest or weed control at 80 g/ha ([8]; 80 g/ha, read-out: Post-emergence effect at 80 g/ha against POLCO in %): 80%; pest or weed control at 320 g/ha ([8]; 320 g/ha, read-out: Post-emergence effect at 320 g/ha against POLCO in %): 80%; pest or weed control at 320 g/ha (Setaria viridis (SETVI)): 80%; pest or weed control at 320 g/ha (Viola tricolor (VIOTR)): 80% |
| CCOC(=O)C(Oc1nn(-c2ncccc2F)c(-c2ccc(Cl)cc2)c1Br)SC (centres unmarked) [Example I-15] | 0 | 0 | 10 | 0 | 0 | 0 | 0 | 0 | 10 | 0 | 0 | 10 | – |
| CCOC(=O)C(Oc1nn(-c2ccc(Cl)cc2F)c(-c2ccc(F)cc2F)c1Br)SC (centres unmarked) [Example I-12] | 0 | 0 | 0 | 0 | 0 | 0 | 0 | 0 | 0 | 0 | 0 | 0 | Post-emergence effect against GLXMA (crop plant compatibility) (Glycine max (GLXMA); 320 g/ha): 0% |
